From BindingDB's records for doi:10.7270/Q2S46QBK (The Scripps Research Institute Molecular Screening Center, 2008)

biological target: T1, Signal transducer and activator of transcription 3 [702-738,740-752] (Homo sapiens, UniProt P40763); assay: STAT3 activation reporter response, dose response, cell-based (AID 1398)
T1 construct: 702-738,740-752
T1 sequence (P40763 as listed by the source): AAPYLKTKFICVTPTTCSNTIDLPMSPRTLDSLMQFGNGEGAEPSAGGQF

**Q.** How did the IC50 turn out when `CCCc1cc(C(=O)Nc2cc(OC)c(Cl)cc2OC)no1` [MLS000116379] was run?
**A.** > 229 nM

**Q.** For `CCCSc1nnc(Sc2nnnn2-c2ccccc2)s1` [2-(1-phenyltetrazol-5-yl)sulfanyl-5-propylsulfanyl-1,3,4-thiadiazole], which IC50 is on record?
**A.** > 6190 nM

**Q.** `COc1ccccc1NC(=O)c1[nH]c(C)c(C(C)=O)c1C` [SMR000066913] was tested. Which IC50 did it give?
**A.** > 25.5 nM

**Q.** `Nc1nc(-c2ccc(Cl)cc2)nn1C(=O)c1cccs1` [MLS000706198] was tested. Which IC50 did it give?
**A.** > 688 nM

**Q.** How did the IC50 turn out when `COc1ccccc1C(=O)Nc1cc(Cl)ccc1O` [MLS000078111] was run?
**A.** > 2060 nM

**Q.** How did the IC50 turn out when `COC(=O)C(NC=O)C(O)(Cc1ccccc1)C(F)(F)F` (stereo not given) [3-benzyl-4,4,4-trifluoro-2-formamido-3-hydroxy-butyric acid methyl ester] was run?
**A.** > 688 nM

**Q.** How did the IC50 turn out when `CC(=O)Nc1c(Cl)n(C(C)=O)c2ccccc12` [MLS000104263] was run?
**A.** > 76 nM

**Q.** How did the IC50 turn out when `Cc1cccc(NC(=O)c2cc([N+](=O)[O-])ccc2Cl)c1O` [2-chloranyl-N-(3-methyl-2-oxidanyl-phenyl)-5-nitro-benzamide] was run?
**A.** > 6190 nM

**Q.** `Cc1[nH]n(-c2ccccc2)c(=O)c1C=C1C(=O)NC(=O)NC1=O` was tested. Which IC50 did it give?
**A.** > 55700 nM

**Q.** With `Cn1c(CNc2ccccc2O)nc2ccccc21` [2-[(1-methyl-2-benzimidazolyl)methylamino]phenol] as the compound, how does the IC50 read?
**A.** > 8.49 nM

**Q.** `COc1cc(NC(=O)c2cc(C(C)C)on2)c(OC)cc1Cl` [MLS000520019] was tested. Which IC50 did it give?
**A.** > 229 nM

**Q.** How did the IC50 turn out when `COc1cc(NC(=O)c2cc(C3CC3)on2)c(OC)cc1Cl` [MLS000522376] was run?
**A.** > 76 nM

**Q.** How did the IC50 turn out when `Cc1nonc1CC(=O)N1CCc2c([nH]c3ccccc23)C1c1ccccc1F` (stereo not given) [1-[1-(2-fluorophenyl)-1,3,4,9-tetrahydropyrido[3,4-b]indol-2-yl]-2-(4-methyl-1,2,5-oxadiazol-3-yl)ethanone] was run?
**A.** > 2060 nM

**Q.** For `Cn1nc(-c2ccc(Cl)cc2)c2cc(C(=O)NCCCN3CCCC3)sc21` [3-(4-chlorophenyl)-1-methyl-N-(3-pyrrolidin-1-ylpropyl)thieno[2,3-c]pyrazole-5-carboxamide], which IC50 is on record?
**A.** > 6190 nM

**Q.** With `COC(=O)c1sccc1NC(=O)c1cc2c(s1)CCCC2` [MLS000051746] as the compound, how does the IC50 read?
**A.** > 2060 nM
